Entries after “also recorded” stand apart in the source; their conditions may differ.
Assays:
adenovirus [1] = assay: Inhibition of adenovirus infection in 293T cells in vitro; assay type: cell-based
Description: Compound 96 inhibited adenovirus infection 100% in 293T cells in vitro.

adenovirus [2] = assay: Inhibition of adenovirus infection in A549 cells in vitro; assay type: cell-based
Description: Compound 96 inhibited adenovirus infection 67% in A549 cells in vitro.

[3] = system: NL-HX-ADA (molecularly cloned macrophage-tropic type of HIV-1); assay: Extended dose response for inactivation of HIV-1 by CTC96, fluorescent focus assay in PBMCs; assay type: cell-based; settings: 1 hour
Procedure: (§1) • Stock virus: NL-HX-ADA ˜5.5 μg/ml p24 (This is a molecularly cloned macrophage-tropic type of HIV-1). Virus was used to infect cells at 1:4,000 final dilution (˜1.4 ng/ml p24). Stock CTC-96: 10 mg/ml prepared directly in RPMI 1640 Method: Concentrated stock solution of virus was treated for 1 hour with equal volume of medium containing the drug at the indicated concentrations (1:2 dilution). The virus/drug mixture was then diluted 1,000-fold (1:2,000 dilution) and then added to an equal volume of PHA-activated humans PBMCs (1:4,000 final dilution) to allow virus replication to occur. The extent of infection was measured after 4 days by a fluorescent focus assay and compared to that of a control culture not containing any drug.

[4] = system: NL-HX-ADA (molecularly cloned macrophage-tropic type of HIV-1); assay: Time course of anti-HIV effect of CTC96 (neutralization vs contact time); assay type: cell-based
Procedure: as §1
Using similar conditions as described above, virus was incubated with 0.625 mg/ml CTC96 for the indicated time period before 1,000-fold dilution and addition to cells.
Virus was incubated with four different concentrations of CTC96 for the indicated time periods, and then the extent of inactivation tested as previously described. Numbers in parentheses indicate results obtained in the initial analysis for the lowest dose ([…]) of CTC96.

[5] = Mouse mortality, survival and weight change in the HPV-11 xenograft SCID mouse experiment; assay type: in vivo, scid/scid mice; settings: for Mouse Status at the end of the Experiment: Alive / Mouse Status at the end of the Experiment: Dead: of 12 mice
Description: Each experiment was done in quadruplicate. Twelve mice were used in each replicate. For each replicate, the four treatment groups were made of 3 mice (3 animals per cage). Each mouse received under the skin of each flank one HPV-11-infected foreskin fragment. Two foreskin donors were used, one for the fragments implanted under the left flank and a different one for the fragments implanted under the right flank. The HPV-11-infected grafts were left to grow for 12 weeks, while the mice weights were monitored every other week. At the end of the 12 weeks, the animals were sacrificed and the grafts recovered, measured and processed.
Six to 7 week old male scid/scid mice were used
The animals were monitored weekly. They were weighed at the time of grafting, and every other week during the 12 weeks of the experiment.
Animals were to be prematurely euthanitized if during monitoring any of the following criteria were met: • greater than 10% weight loss; • bleeding or bruising; • inability to maintain righting reflex; • inability to move about; • inability to eat or drink; • tumor greater than 30% of the animal's body weight.
The animals were otherwise sacrificed by cervical dislocation 12 weeks after graft implantation. Length, width, and height of the graft were measured and recorded. The graft were then removed and split in at least two parts. One part was fixed in buffered formalin. The other part was either left as is, or subdivided for subsequent analyses in as many fragments as size permitted. These fragments were placed in a sterile labelled vial and frozen in liquid nitrogen before being transferred to a −80° C. freezer.
Those animals dying unexpectedly before the date of the scheduled euthanasia had their grafts measured and fixed in formalin, if body decomposition was not too advanced.

[6] = [CTC96] 0.625 μg/ml, contact time 2 minutes
[7] = [CTC96] 0.625 μg/ml, contact time 4 minutes
[8] = [CTC96] 0.625 μg/ml, contact time 8 minutes
[9] = [CTC96] 0.625 μg/ml, contact time 16 minutes
[10] = [CTC96] 0.625 μg/ml, contact time 32 minutes
[11] = [CTC96] 0.625 μg/ml, contact time 64 minutes

CC1=CC(C)=[N+]2CC[N+]3=C(C)C=C(C)[O][Co-4]23([n+]2cc[nH]c2C)([n+]2cc[nH]c2C)[O]1.[Br-] [Compound 96]
inhibited adenovirus infection (adenovirus [1]): 100%
inhibited adenovirus infection (adenovirus [2]): 67%
% Neutralization ([3]; Batch A: [CTC96] during incubation with virus 5 mg/ml (initial 10 mg/ml; after final dilution 2.5 ng/ml)): 100%
% Neutralization ([3]; Batch B: [CTC96] during incubation with virus 2.5 mg/ml (initial 5 mg/ml; after final dilution 1.25 ng/ml)): 100%
% Neutralization ([3]; Batch C: [CTC96] during incubation with virus 1.25 mg/ml (initial 2.5 mg/ml; after final dilution 0.61 ng/ml)): 100%
% Neutralization ([3]; Batch D: [CTC96] during incubation with virus 0.625 mg/ml (initial 1.25 mg/ml; after final dilution 0.31 ng/ml)): 100%
% Neutralization ([3]; Batch E: [CTC96] during incubation with virus 0.312 mg/ml (initial 0.6 mg/ml; after final dilution 0.156 ng/ml)): 83%
% Neutralization ([3]; Batch F: [CTC96] during incubation with virus 0.156 mg/ml (initial 0.3 mg/ml; after final dilution 0.078 ng/ml)): 63%
% Neutralization ([3]; Batch G: [CTC96] during incubation with virus 0.078 mg/ml (initial 0.156 mg/ml; after final dilution 0.039 ng/ml)): 55%
% Neutralization ([3]; Batch H: [CTC96] during incubation with virus 0.039 mg/ml (initial 0.078 mg/ml; after final dilution 0.019 ng/ml)): 18%
% Neutralization ([3]; Batch I: [CTC96] during incubation with virus 0.019 mg/ml (initial 0.039 mg/ml; after final dilution 0.009 ng/ml)): 1%
% Neutralization ([3]; Batch J: [CTC96] during incubation with virus 0.009 mg/ml (initial 0.019 mg/ml; after final dilution 0.0045 µg/ml)): 2%
% Neutralization ([3]; Batch K: [CTC96] during incubation with virus 0.0045 mg/ml (initial 0.009 mg/ml; after final dilution 0.0023 ng/ml)): 1%
% Neutralization [4, 6]: 15%
% Neutralization [4, 7]: 25%
% Neutralization [4, 8]: 41%
% Neutralization [4, 9]: 56%
% Neutralization [4, 10]: 65%
% Neutralization [4, 11]: 80%
% Neutralization ([4]; [CTC96] 1.25 μg/ml, contact time 2 minutes): 4%
% Neutralization ([4]; [CTC96] 1.25 μg/ml, contact time 4 minutes): 17%
% Neutralization ([4]; [CTC96] 1.25 μg/ml, contact time 8 minutes): 42%
% Neutralization ([4]; [CTC96] 1.25 μg/ml, contact time 16 minutes): 61%
% Neutralization ([4]; [CTC96] 1.25 μg/ml, contact time 32 minutes): 78%
% Neutralization ([4]; [CTC96] 1.25 μg/ml, contact time 64 minutes): 94%
% Neutralization ([4]; [CTC96] 2.5 μg/ml, contact time 2 minutes): 21%
% Neutralization ([4]; [CTC96] 2.5 μg/ml, contact time 4 minutes): 25%
% Neutralization ([4]; [CTC96] 2.5 μg/ml, contact time 8 minutes): 47%
% Neutralization ([4]; [CTC96] 2.5 μg/ml, contact time 16 minutes): 72%
% Neutralization ([4]; [CTC96] 2.5 μg/ml, contact time 32 minutes): 86%
% Neutralization ([4]; [CTC96] 2.5 μg/ml, contact time 64 minutes): 100%
% Neutralization ([4]; [CTC96] 5 μg/ml, contact time 2 minutes): 37%
% Neutralization ([4]; [CTC96] 5 μg/ml, contact time 4 minutes): 52%
% Neutralization ([4]; [CTC96] 5 μg/ml, contact time 8 minutes): 65%
% Neutralization ([4]; [CTC96] 5 μg/ml, contact time 16 minutes): 78%
% Neutralization ([4]; [CTC96] 5 μg/ml, contact time 32 minutes): 98%
% Neutralization ([4]; [CTC96] 5 μg/ml, contact time 64 minutes): 100%
% Neutralization (in parentheses: initial analysis) [4, 6]: 7%
% Neutralization (in parentheses: initial analysis) [4, 7]: 43%
% Neutralization (in parentheses: initial analysis) [4, 8]: 56%
% Neutralization (in parentheses: initial analysis) [4, 9]: 64%
% Neutralization (in parentheses: initial analysis) [4, 10]: 76%
% Neutralization (in parentheses: initial analysis) [4, 11]: 100%
Mouse Survival, Lower Quartile ([5]; CTC 96 0.05%): 84.00 days
Mouse Survival, Means ([5]; CTC 96 0.05%): 83.167 days
Mouse Survival, Median ([5]; CTC 96 0.05%): 84.00 days
Mouse Survival, Upper Quartile ([5]; CTC 96 0.05%): 84.00 days
Mouse Weight Changes during the Experiment, Lower Quartile ([5]; CTC 96 0.05%): 12.32%
Mouse Weight Changes during the Experiment, Means ([5]; CTC 96 0.05%): 13.12%
Mouse Weight Changes during the Experiment, Median ([5]; CTC 96 0.05%): 14.16%
Mouse Weight Changes during the Experiment, Upper Quartile ([5]; CTC 96 0.05%): 15.62%
Mouse Status at the end of the Experiment: Alive ([5]; CTC 96 0.05%): 11
Mouse Status at the end of the Experiment: Dead ([5]; CTC 96 0.05%): 1
Mouse Survival, Lower Quartile ([5]; CTC 96 0.2%): 57.50 days
Mouse Survival, Means ([5]; CTC 96 0.2%): 69.83 days
Mouse Survival, Median ([5]; CTC 96 0.2%): 84.00 days
Mouse Survival, Upper Quartile ([5]; CTC 96 0.2%): 84.00 days
Mouse Weight Changes during the Experiment, Lower Quartile ([5]; CTC 96 0.2%): 11.48%
Mouse Weight Changes during the Experiment, Means ([5]; CTC 96 0.2%): 15.77%
Mouse Weight Changes during the Experiment, Median ([5]; CTC 96 0.2%): 11.77%
Mouse Weight Changes during the Experiment, Upper Quartile ([5]; CTC 96 0.2%): 24.80%
Mouse Status at the end of the Experiment: Alive ([5]; CTC 96 0.2%): 8
Mouse Status at the end of the Experiment: Dead ([5]; CTC 96 0.2%): 4
Mouse Survival, Lower Quartile ([5]; CTC 96 1%): 84.00 days
Mouse Survival, Means ([5]; CTC 96 1%): 84.00 days
Mouse Survival, Median ([5]; CTC 96 1%): 84.00 days
Mouse Survival, Upper Quartile ([5]; CTC 96 1%): 84.00 days
Mouse Weight Changes during the Experiment, Lower Quartile ([5]; CTC 96 1%): 5.926%
Mouse Weight Changes during the Experiment, Means ([5]; CTC 96 1%): 9.96%
Mouse Weight Changes during the Experiment, Median ([5]; CTC 96 1%): 9.00%
Mouse Weight Changes during the Experiment, Upper Quartile ([5]; CTC 96 1%): 12.40%
Mouse Status at the end of the Experiment: Alive ([5]; CTC 96 1%): 12
Mouse Status at the end of the Experiment: Dead ([5]; CTC 96 1%): 0
effect on mouse weight gain ([5]; all treatment groups, drug used only to inactivate HPV-11 in vitro): no effect
effect on mouse mortality (number of deaths, length of survival) ([5]; all treatment groups, drug used only to inactivate HPV-11 in vitro, listed as CTC 96): no differences among the treatment groups; also recorded: no effect
